# From patent publication US20080318931A1, “Treatment of Disorders and Diseases of the Colon” (priority 2004, published 2008)
# Entries after “also recorded” stand apart in the source; their conditions may differ.
# Legend:
# [1] = system: ConA-induced mouse splenocytes; test: Con-A-induced mouse splenocyte proliferation/viability, alamar blue; format: cell-based; conditions: for ConA (mitogen)-induced splenocyte proliferation: 2.5-10 μM, alamar blue; for cytotoxicity at 20 µM: Mus musculus, Splenocyte, read-out: inhibition of cell viability
# Experimental: (§1) Mouse splenocytes were isolated from C57b1 healthy female mice. Cells (10,000/well) were tested under basal and ConA stimulation. Cells were treated with vehicle, dexamethasone or antidepressants (2.5-10 μM). Viability was assessed 48 hr later using alamar blue staining. (Reagents were manufactured by Wildflower, Santa Fe, N. Mex., USA.) Alamar blue assay was performed as in Nociari et al (1998).
# (§2) Effect of paroxetine, (SSRI) and clomipramine (TCA) as compared to dexamethasone on Con-A-induced splenocyte proliferation (alamar blue method), and splenocyte-induced secretion of TH1 cytokines TNF-α, IL2 and INFγ, 1×10^6 cells/well, was measured 48 hours after exposure to drugs (2.5-10 μM).
# In particular, mouse splenocytes were isolated from C57BL healthy female mice. Cells (10,000/well) were then exposed to Con-A (5 μM) and treated with either the vehicle, with dexamethasone or with a drug (2.5-10 μM).
# Cell viability was assessed 48 hr later using Alamar blue staining. The results are presented in FIG. 4, where each point is the graph represents the mean of 4 determinations. […]. The IC50 determined for the antidepressant drugs was in the range of 2.5-5.5 μM.
# Cells were treated with vehicle, or the antidepressants (2.5-20 μM). Viability was assessed 48 hours later using alamar blue staining. (Each point is the mean+/−SEM of 4 determinations).
# [2] = system: mouse splenocytes (basal); test: Basal mouse splenocyte viability, alamar blue; format: cell-based; conditions: 2.5-10 μM, 48 hr
# Experimental: as §1
# [3] = system: TH1 cytokines TNF-α, IL2 and INFγ; test: TH1 cytokine secretion (TNF-α, IL2, INFγ) from Con-A-induced splenocytes, ELISA; format: cell-based, mouse; conditions: 2.5-10 μM, 48 hours, 1×10^6 cells/well
# Experimental: as §2
# Cytokines were determined in the supernatant of the splenocyte specimens using an ELISA kit and protocol (Reagents by Cytolab). […] The pattern observed resembles that of dexamethasone.
# [4] = system: splenocytes derived from treated mice; test: ConA/basal proliferation ratio of splenocytes from mice treated in vivo for 7 days; design: species or system mouse; conditions: paroxetine 7.5, clomipramine 15 mg/kg x3/week i.p., Con A 5 μM in vitro
# Experimental: Paroxetine or clomipramine were administered at 7.5 and 15 mg/kg x3/week i.p, respectively. Splenocytes were derived from treated animals.
# Each group represents the mean of a pool of 5 animals.
# human PBMC = test: Viability of LPS-exposed human PBMC, alamar blue; format: cell-based; conditions: LPS 2 ug/well, 2.5-30 μM, 48 hours, both subjects
# Experimental: Human PBMC were isolated from whole blood of 2 healthy volunteers (A and B subjects). Cells (2×10^6/ml) were exposed to LPS (2 ug/well) and treated with either the vehicle, or with paroxetine, sertraline, clomipramine and trifluoperazine (2.5-30 μM).
# [5] = system: Human Colon carcinoma (HT29) cell-line; test: Viability of human colon carcinoma HT29 cells, alamar blue and neutral red; format: cell-based; conditions: for inhibition of cell viability: 10-30 μM, FIG. 14; for cell viability / responsiveness of HT29 cells: FIG. 13
# Experimental: Human Colon carcinoma (HT29) cell-line (ATCC USA) was maintained in RPMI medium supplemented with 10% fetal calf serum and penicillin (100 u/ml), streptomycin (100 mcg/ml), nystatin (12.5 u/ml), L-glutamine (2 mM). Confluent cultures were washed with phosphate-buffered saline (PBS), detached with trypsine (0.25%), centrifuged, and subcultured in 96-well microtiter test plates. Cells were exposed to vehicle or to psychotropic drugs. Cell viability was measured 24 hours later using the alamar blue and neutral red methods. Results were expressed as % of controls (vehicle treated cells). Each sample is the Mean+/−[…] of 4 determinations.
# INF-γ = INF-γ secretion from Con-A activated mouse splenocytes, ELISA; format: cell-based; conditions: Splenocyte; for inhibition at 10 µM: read-out: maximal inhibition of INF-γ
# Experimental: INF-γ was determined in the supernatant of the splenocyte specimens using ELISA kit and protocol (Manufactured by Cytolab).
# [6] = system: Con-A activated splenocytes; test: cells; conditions: Mus musculus, Splenocyte, read-out: inhibition of viability, splenocytes from naïve animals
# Experimental: (§4) LPS (manufactured by Sigma St. Louis Mo., USA, cat no L2880) was administered at 100 μg/mouse×2, on day 7 and day 14).
# Cyclooxygenase-2 (Cox-2) = test: Cox-2 expression in ConA stimulated mouse splenocytes, Western blot; format: cell-based; conditions: 5 μM, normalized to actin
# Experimental: Determination was performed using Western blot analysis and quantitative dencitometry of blot.
# For each sample 2×10^7 cells were used. Cells were lysed, and equal amounts of protein was fractionated on polyacrylamide gel and then transferred to PVDF membrane. The amount of the protein was detected by immuno-blotting with […] anti-Cox-2 anti body (Murine anti COX2 Polyclonal Cat. 160126, Ann Arbor, Mich., USA. 2nd antibody conjugated to horseradish peroxidase was used and visualized with chemiluminescent Kit (Pierce, Rockford, Ill., USA) on film. Quantification of blot was performed using a densitometry apparatus (VersaDoc™ imaging system, BioRad, USA) and levels were normalized to actin.
# bcl-2 = bcl-2 expression in HT29 cells, western blot; format: cell-based, human; conditions: 10 and 20 μM, 24 hr
# Experimental: (§3) The effect of paroxetine and sertraline on the expression of bcl-2 and C-jun was evaluated in human colon HT29 cell-line 24 hr after drug administration, using western blot analysis for C-jun and bcl-2 and specific antibodies.
# C-jun = C-jun expression in HT29 cells, western blot; format: cell-based, human; conditions: 10 and 20 μM, 24 hr
# Experimental: as §3
# [7] = system: HT29 human colon cancer tumor; test: HT29 human colon cancer tumor growth in nude mice; format: in vivo, mouse; conditions: 20 mg/kg s.c ×3/week, after 3 courses
# Experimental: The in-vivo anti tumor activity of active antidepressants was assessed in animal model of cancer. Five Nude mice (males, 6 weeks of age) were inoculated with HT29 cells (4,000,000/100 μL) by subcutaneous (s.c.) administration. […] Sertraline therapy was initiated on the 7th day after cell grafting. 3 animals were treated with sertraline (20 mg/kg s.c×3/week) near the cancerous area and 2 animals served as controls.
# [8] = system: Con-A activated splenocytes; conditions: 5 μM
# Experimental: as §4
# [9] = chitosan capsules, colon targeting technology; cited from earlier work
smiles,measurement,setting,value
CN(C)CCCN1c2ccccc2CCc2ccc(Cl)cc21 [clomipramine],ConA (mitogen)-induced splenocyte proliferation,[1]; 48 hr,dose dependent decrease; also recorded: dose-dependent decrease
same,basal splenocyte proliferation,[2],dose dependent decrease
same,lymphocyte-induced pro-inflammatory cytokine secretion,[3],decrease
same,capacity to respond to Con-A (ratio ConA/basal) vs vehicle treated mice,[4],lower capacity to respond to exogenous stimulus of Con-A
same,"order of potency, decrease in cell viability",human PBMC,sertraline>paroxetine>trifluoperazine>/=clomipramine
same,inhibition of cell viability,[5],38%
COc1ccc(C(CN(C)C)C2(O)CCCCC2)cc1 (stereo not drawn) [venlafaxine],inhibition at 10 µM,INF-γ,16%
CN(C)CCC=C1c2ccccc2CCc2ccccc21 [amitriptyline],maximal inhibition of cell viability,"[1]; 2.5-20 μM, 48 hours",80.7%
COCCCC/C(=N\OCCN)c1ccc(C(F)(F)F)cc1 [fluvoxamine],inhibition at 10 µM,INF-γ,51%
CN(C)CCCC1(c2ccc(F)cc2)OCc2cc(C#N)ccc21 (stereo not drawn) [citalopram],cytotoxicity at 20 µM,[1]; 48 hours,49%
OCCN1CCN(CCCN2c3ccccc3Sc3ccc(Cl)cc32)CC1 [perphenazine],cell viability / responsiveness of HT29 cells,[5]; 24 hours,dose dependent decrease
OCCN1CCN(CCCN2c3ccccc3Sc3ccc(C(F)(F)F)cc32)CC1 [fluphenazine],cell viability / responsiveness of HT29 cells,[5]; 24 hours,dose dependent decrease
CN1CCN(CCCN2c3ccccc3Sc3ccc(C(F)(F)F)cc32)CC1 [trifluoperazine],"order of potency, decrease in cell viability",human PBMC,sertraline>paroxetine>trifluoperazine>/=clomipramine
"O=c1[nH]cc(F)c(=O)[nH]1 [5FU, 5fluoro uracil]",cell viability / responsiveness of HT29 cells,[5]; 24 hours,resistance
C[C@@H]1C[C@H]2[C@@H]3CCC4=CC(=O)C=C[C@]4(C)[C@@]3(F)[C@@H](O)C[C@]2(C)[C@@]1(O)C(=O)CO [dexamethasone],inhibition at 2.5 µM,INF-γ; 2.5 μM,83%
same,cytotoxicity at 5 µM,[6],60%
CSc1ccc2c(c1)N(CCC1CCCCN1C)c1ccccc1S2 (stereo not drawn) [thioridazine],cell viability / responsiveness of HT29 cells,[5]; 24 hours,dose dependent decrease
same,cytotoxicity at 20 µM,"[5]; Homo sapiens, HT-29, 20 μM, 24 hours, read-out: inhibition of cell viability",85%
CN(C)CCC=C1c2ccccc2COc2ccccc21 [doxepine],cytotoxicity at 20 µM,[1]; 48 hours,38%
CN[C@H]1CC[C@@H](c2ccc(Cl)c(Cl)c2)c2ccccc21 [sertraline],ConA (mitogen)-induced splenocyte proliferation,[1]; 48 hr,dose-dependent decrease
same,cell viability compared to dexamethasone,"[1]; Con-A 5 μM, drug 2.5-10 μM, 48 hr",decreased cell viability to the same extent as compared to dexamethasone
same,"order of potency, decrease in cell viability",human PBMC,sertraline>paroxetine>trifluoperazine>/=clomipramine
same,reduction of Cox-2 expression,Cyclooxygenase-2 (Cox-2),24.3%
same,inhibition of cell viability,[5],up to 75%
same,expression of bcl-2,bcl-2,inhibition
same,expression of C-jun,C-jun,stimulation
same,tumor growth vs untreated controls (1 animal),[7],prevention of tumor growth
same,tumor growth vs untreated controls (2 other animals),[7],decrease in tumor growth
same,response of splenocytes from LPS mice treated in vivo with sertraline,[8]; LPS mice + sertraline 5 mg/kg×3/week two weeks,more responsive
same,response of splenocytes from LPS mice,[8]; LPS-treated mice,in a manner similar to the naive animals
same,cytotoxicity at 5 µM,[6],40%
Nc1ccc(O)c(C(=O)O)c1 [mesalamine],decrease in systemic exposure,[9],50%
COc1cccc2c1C(=O)c1c(O)c3c(c(O)c1C2=O)C[C@@](O)(C(=O)CO)C[C@@H]3O[C@H]1C[C@H](N)[C@H](O)[C@H](C)O1 [doxorubicin],cell viability / responsiveness of HT29 cells,[5]; 24 hours,only partial responsiveness
